Measurements reported in patent US20130216631A1, “TARGETED PERFORMANCE OF HYPOHALITE COMPOSITIONS THEREOF” (The Clorox Company, priority 2012, published 2013).

Test: Percentage of initial hypochlorite remaining over time after mixing oxidant and reductant
Assay type: physicochemical
Details: any pH below 12
From the text: The amount of available halogen oxidant in the composition may be determined by placing samples of the composition into about 50 milliliters of distilled water, followed by addition of about 10 milliliters of a 10 wt % solution of potassium iodide and addition of about 10 milliliters of a 10 volume % solution of sulfuric acid, the resulting mixture being well stirred. The resulting yellow to brown solution, whose color is the result of oxidation of […] (I^−) to molecular iodine (I2), is then volumetrically titrated to an essentially colorless endpoint by addition of standardized 0.1 Molar sodium thiosulfate (Na2S2O3) titrant. […] Stability results are then expressed by repeated assays over time using identically prepared samples resulting from the same composition, normalized to 100 percent representative of the starting available chlorine measured initially.
Alternatively, at lower concentrations of hypochlorite, generally below about 2,000 ppm or 0.2 wt %, spectroscopic measurement of the absorption of aqueous solutions may be used to monitor the concentration, and resulting changes, of the hypochlorous acid species in solution. […] By use of controls, the relative level of hypochlorite can then be monitored and calculated by measuring absorbance of solutions by means of a suitable instrument, such as a spectrophotometer. […]

reaction of reductant with hypochlorite (quench rate): reacts almost instantly
Compound: O=C(O)CN(CCN(CC(=O)O)CC(=O)O)CC(=O)O [EDTA, ethylene diamine tetra-acetic acid]
